Assay results from patent US4237141A, “Derivatives of α-methyl-β-aminopropiophenone and use thereof” (priority 1977, dated 1980).

How the values were obtained:
[1] = system: guinea-pig isolated tracheal smooth muscles; assay: Relaxant action on guinea-pig isolated tracheal chain contracted by histamine; details: for EC50: Cavia porcellus, contracted by 10^-4 M histamine, read-out: A: 50% effective amount for the guinea-pig isolated tracheal smooth muscles (50% relaxation); for B/A: selectivity to tracheal smooth muscles: based on reference B/A value 1 for isoproterenol, B from canine femoral artery
From the text: (§1) Reference will now be made to pharmacological effects of the compounds according to the present invention.
(§2) (1) Relaxant action on the guinea-pig isolated tracheal smooth muscles and the vasodilating action on the canine anesthetized femoral arterial preparation were employed to compare the pharmacological effects of each of the compounds.

[2] = system: canine femoral arterial preparation; assay: Vasodilating action in the canine anesthetized femoral arterial preparation (close arterial injection); assay type: in vivo
From the text: as §1, §2

[3] = Acute toxicity, intraperitoneal injection in mice; details: mouse, in vivo, ip; intraperitoneal injection to mice; read-out: F: Approx. LD50 value
Procedure: Another experiment was also conducted using mice as an index for the acute toxicity to the whole body.
Approx. LD50 value on intraperitoneal injection for mice was determined.

[4] = system: canine blood-perfused tracheal preparation; assay: Canine blood-perfused tracheal preparation in situ: intraluminal pressure decrease and perfused-blood flow increase; assay type: in vivo; details: for C: dose required for 20 cm H2O decrease in the tracheal intraluminal pressure (bronchodilator action) / D: dose required for 5 ml/min increase in the perfused-blood flow (vasodilator action): canine blood-perfused tracheal preparation in situ; for D/C × 10: selectivity: based on reference D/C value 1 for isoproterenol
Procedure: as §1
The bronchodilator action was represented by a dose (C), μg, of a compound required for decreasing the intraluminal pressure by 20 cm H2 O and the vasodilator action was represented by a dose (D), μg, of the compound required for increasing the perfused-blood flow by 5 ml/min.

β-adrenoceptor = assay: Relaxant action on guinea-pig isolated trachea in the presence of propranolol (β-adrenoceptor involvement); details: histamine 10^-4 M; propranolol 2.5×10^-5 M; FIGS. 1-4
From the text: as §2
Histamine (10^-4 M in the bath medium) was applied to the guinea-pig isolated tracheal preparation to contract the muscles, and the effect of the above compounds to inhibit the contraction (%) was plotted along the ordinate on each of the points for concentration which were connected by a solid line into a curve. Then, the dose-response curve for the compound in the presence of propranolol (2.5×10^-5 M) was obtained and plotted in a dotted line.

## CCSc1ccc(C(=O)C(C)CN2CCOCC2)cc1 (centres unmarked) [Compound 25, 1-(4-ethylthiophenyl)-3-morpholino-2-methylpropanone-1]
[1]
  EC50: 100 µM
  B/A: selectivity to tracheal smooth muscles: 1
[2]
  B: dose required for 30 ml/min increase in the perfused-blood flow (vasodilator action): 100 µg
[3]
  LD50: 200 mg/kg

## CC(C)NCC(O)c1ccc(O)c(O)c1 (centres unmarked) [isoproterenol, reference compound]
[1]
  EC50: 0.005 µM
[2]
  B: dose required for 30 ml/min increase in the perfused-blood flow (vasodilator action): 0.0053 µg
[4]
  C: dose required for 20 cm H2O decrease in the tracheal intraluminal pressure (bronchodilator action): 0.1 µg
  D: dose required for 5 ml/min increase in the perfused-blood flow (vasodilator action): 0.01 µg

## CCSc1ccc(C(=O)C(C)CN(C)C)cc1 (centres unmarked) [Compound 54]
[1]
  EC50: 60 µM
  B/A: selectivity to tracheal smooth muscles: 6
[2]
  B: dose required for 30 ml/min increase in the perfused-blood flow (vasodilator action): 350 µg
[3]
  LD50: 200 mg/kg

## CCSc1ccc(C(=O)C(C)CN2CCCCC2)cc1 (centres unmarked) [Compound 29, 1-(4-ethylthiophenyl)-3-piperidino-2-methylpropanone-1]
[1]
  EC50: 2 µM
  B/A: selectivity to tracheal smooth muscles: 90
[2]
  B: dose required for 30 ml/min increase in the perfused-blood flow (vasodilator action): 180 µg
[4]
  D/C × 10: selectivity: 7
  C: dose required for 20 cm H2O decrease in the tracheal intraluminal pressure (bronchodilator action): 109 µg
  D: dose required for 5 ml/min increase in the perfused-blood flow (vasodilator action): 77 µg
β-adrenoceptor
  difference between dose-response curves without and with propranolol (inhibition of histamine contraction): no substantial difference

## CC[S+]([O-])c1ccc(C(=O)C(C)CN2CCCCC2)cc1 (centres unmarked) [Compound 10]
[1]
  EC50: 200 µM
  B/A: selectivity to tracheal smooth muscles: 4
[2]
  B: dose required for 30 ml/min increase in the perfused-blood flow (vasodilator action): 700 µg

## CC(CN1CCCCC1)C(=O)c1ccc(S(=O)(=O)c2ccccc2)cc1 (centres unmarked) [Compound 42, 1-(4-phenylsulfonylphenyl)-3-piperidino-2-methylpropanone-1]
[1]
  EC50: 20 µM
  B/A: selectivity to tracheal smooth muscles: 9
[2]
  B: dose required for 30 ml/min increase in the perfused-blood flow (vasodilator action): 175 µg

## COc1cc(CC2NCCc3cc(O)c(O)cc32)cc(OC)c1OC (centres unmarked) [trimetoquinol]
[4]
  D/C × 10: selectivity: 2.5
  C: dose required for 20 cm H2O decrease in the tracheal intraluminal pressure (bronchodilator action): 0.2 µg
  D: dose required for 5 ml/min increase in the perfused-blood flow (vasodilator action): 0.05 µg

## CCSc1ccc(C(=O)C(C)CN(CC)CC)cc1 (centres unmarked) [Compound 55]
[1]
  EC50: 60 µM
  B/A: selectivity to tracheal smooth muscles: 5
[2]
  B: dose required for 30 ml/min increase in the perfused-blood flow (vasodilator action): 270 µg
[3]
  LD50: 200 mg/kg

## CC(CN1CCCCC1)C(=O)c1ccc([S+](C)[O-])cc1 (centres unmarked) [Compound 4, 1-(4-methylsulfinylphenyl)-3-piperidino-2-methylpropanone-1]
[1]
  EC50: 300 µM
  B/A: selectivity to tracheal smooth muscles: 3
[2]
  B: dose required for 30 ml/min increase in the perfused-blood flow (vasodilator action): 800 µg

## CCCC[S+]([O-])c1ccc(C(=O)C(C)CN2CCCCC2)cc1 (centres unmarked) [Compound 28, 1-(4-butylsulfinylphenyl)-3-piperidino-2-methylpropanone-1]
[1]
  EC50: 60 µM
  B/A: selectivity to tracheal smooth muscles: 8
[2]
  B: dose required for 30 ml/min increase in the perfused-blood flow (vasodilator action): 460 µg

## CSc1ccc(C(=O)C(C)CN2CCCC2)cc1 (centres unmarked) [Compound 50]
[1]
  EC50: 6 µM
  B/A: selectivity to tracheal smooth muscles: 7
[2]
  B: dose required for 30 ml/min increase in the perfused-blood flow (vasodilator action): 43 µg

## CC(C)(C)NCC(O)c1ccc(O)c(CO)c1 (centres unmarked) [salbutamol]
[4]
  D/C × 10: selectivity: 2
  C: dose required for 20 cm H2O decrease in the tracheal intraluminal pressure (bronchodilator action): 2 µg
  D: dose required for 5 ml/min increase in the perfused-blood flow (vasodilator action): 0.4 µg

## CCS(=O)(=O)c1ccc(C(=O)C(C)CN2CCCCC2)cc1 (centres unmarked) [Compound 22, 1-(4-ethylsulfonylphenyl)-3-piperidino-2-methylpropanone-1]
[1]
  EC50: 60 µM
  B/A: selectivity to tracheal smooth muscles: 9
[2]
  B: dose required for 30 ml/min increase in the perfused-blood flow (vasodilator action): 580 µg

## CSc1ccc(C(=O)C(C)CN(C)C)cc1 (centres unmarked) [Compound 48, 1-(4-methylthiophenyl)-3-dimethylamino-2-methylpropanone-1]
[1]
  EC50: 6 µM
  B/A: selectivity to tracheal smooth muscles: 17
[2]
  B: dose required for 30 ml/min increase in the perfused-blood flow (vasodilator action): 100 µg

## CC(C)(C)NCC(O)c1cc(O)cc(O)c1 (centres unmarked) [terbutaline]
[4]
  D/C × 10: selectivity: 4
  C: dose required for 20 cm H2O decrease in the tracheal intraluminal pressure (bronchodilator action): 0.5 µg
  D: dose required for 5 ml/min increase in the perfused-blood flow (vasodilator action): 0.2 µg

## CCCCS(=O)(=O)c1ccc(C(=O)C(C)CN2CCCCC2)cc1 (centres unmarked) [Compound 36, 1-(4-butylsulfonylphenyl)-3-piperidino-2-methylpropanone-1]
[1]
  EC50: 20 µM
  B/A: selectivity to tracheal smooth muscles: 18
[2]
  B: dose required for 30 ml/min increase in the perfused-blood flow (vasodilator action): 360 µg
[4]
  D/C × 10: selectivity: 3
  C: dose required for 20 cm H2O decrease in the tracheal intraluminal pressure (bronchodilator action): 333 µg
  D: dose required for 5 ml/min increase in the perfused-blood flow (vasodilator action): 100 µg

## CC(CN1CCCCC1)C(=O)c1ccc(S(C)(=O)=O)cc1 (centres unmarked) [Compound 16, 1-(4-methylsulfonylphenyl)-3-piperidino-2-methylpropanone-1]
[1]
  EC50: 60 µM
  B/A: selectivity to tracheal smooth muscles: 12
[2]
  B: dose required for 30 ml/min increase in the perfused-blood flow (vasodilator action): 750 µg
β-adrenoceptor
  difference between dose-response curves without and with propranolol (inhibition of histamine contraction): no substantial difference

## CCSc1ccc(C(=O)C(C)CN2CCCC2)cc1 (centres unmarked) [Compound 37]
[1]
  EC50: 30 µM
  B/A: selectivity to tracheal smooth muscles: 6
[2]
  B: dose required for 30 ml/min increase in the perfused-blood flow (vasodilator action): 175 µg
[3]
  LD50: 200 mg/kg

## CSc1ccc(C(=O)C(C)CN2CCN(C)CC2)cc1 (centres unmarked) [Compound 53]
[1]
  EC50: 200 µM
  B/A: selectivity to tracheal smooth muscles: 2
[2]
  B: dose required for 30 ml/min increase in the perfused-blood flow (vasodilator action): 430 µg

## CSc1ccc(C(=O)C(C)CN2CCCCC2)cc1 (centres unmarked) [Compound 51, 1-(4-methylthiophenyl)-3-piperidino-2-methylpropanone-1]
[1]
  EC50: 6 µM
  B/A: selectivity to tracheal smooth muscles: 40
[2]
  B: dose required for 30 ml/min increase in the perfused-blood flow (vasodilator action): 240 µg
[4]
  D/C × 10: selectivity: 8
  C: dose required for 20 cm H2O decrease in the tracheal intraluminal pressure (bronchodilator action): 62.5 µg
  D: dose required for 5 ml/min increase in the perfused-blood flow (vasodilator action): 50 µg
β-adrenoceptor
  difference between dose-response curves without and with propranolol (inhibition of histamine contraction): no substantial difference
